Entries after “also recorded” stand apart in the source; their conditions may differ.
What was measured:
[1] = tested on: primary mouse hippocampal neurons; test: NMDA receptor induced mitochondrial membrane potential breakdown (Rh123 imaging); assay type: cell-based
Method: Coverslips with primary cultured neurons (DIV15-DIV17) were used to examine mitochondrial membrane potential (Ψm) and mitochondrial calcium signalling, which was performed at room temperature in CO2-independent culture medium (CICM) containing: 10 mM HEPES, 140 mM NaCl, 2.5 mM KCl, 1.0 mM MgCl2, 2.0 mM CaCl2, 1.0 mM Glycine, 35.6 mM Glucose and 0.5 mM Na-pyruvate. All images were obtained by a cooled-CCD camera (iXon 887, Andor) on an upright microscope (BX51WI, Olympus). Fluorescence excitation was provided by a xenon arc lamp in combination with an excitation filter wheel (MT-20, Olympus). Data were collected using Cell^R software (Olympus), analysed using ImageJ and quantified using Igor Pro (WaveMetrics). Ψm was detected with the small molecule fluorescence indicator Rhodamine 123 (Rh123; Molecular Probe™, R302). Primary cultured neurons were loaded with 4.3 μM Rh123 in CICM at 37° C. for 30 min, then washed and left in CICM for another 30 min before recording. At the end of each experiment, the mitochondrial uncoupler FCCP (5 μM, Sigma-Aldrich, Cat #C2920) was applied to the cells to reach the maximal Rh123 fluorescence intensity. Rh123 was imaged with 470±20 nm excitation and 525±25 nm emission wavelengths using a 20× objective. Rh123 fluorescence intensity was measured in the nucleus to minimize contamination from cytosolic mitochondrial signal and Rh123 fluorescence intensity was normalized to the maximum FCCP signal for each region of interest.
Mitochondrial dysfunction is a hallmark of NMDA receptor excitotoxicity and an early event en-route to neuronal death. A parameter that is often used to assess mitochondrial integrity is the mitochondrial membrane potential. A breakdown of the mitochondrial membrane potential can be observed after exposure of hippocampal or cortical neurons to NMDA and indicates excitotoxicity-associated mitochondrial dysfunction. Therefore, the inventors investigated the effect of polypeptides comprising the sequence of SEQ ID NO:5 or SEQ ID NO: 54 as well as of the control TRMP5 sequence (SEQ ID NO: 55) on mitochondrial membrane potential break down in primary mouse hippocampal neurons. Excitotoxicity leading to mitochondrial membrane potential break down was induced with bath application of 20 μM NMDA. After 11 minutes, the mitochondrial uncoupler, carbonylcyanide-p-trifluoromethoxyphenylhydrazone (FCCP) was added. Addition of FCCP leads to break-down of the mitochondrial membrane potential and served as a control of the test system.

[2] = tested on: middle cerebral artery occlusion (MCAO) mouse stroke model; test: middle cerebral artery occlusion (MCAO) mouse stroke model, infarct volume; assay type: in vivo; details: rAAV delivered stereotactically to mouse cortex 3 weeks before MCAO; quantified 7 days post-injury; vs PBS control
Excerpt: Given the robust protective effect of SEQ ID NO:5 in cultured neurons, the inventors next analysed its neuroprotective potential in vivo using the middle cerebral artery occlusion (MCAO) mouse stroke model.
Stereotactic intracerebral injection to the cortex of mice: C57BL/6N male mice (8 weeks±5 days old) weighing 25±1 g were randomly grouped and anaesthetized with a mixture of Sedin©, Midazolam and Fentanyl®-Janssen and placed on a rodent stereotactic frame on a heat pad temperature controlled by a ATC1000 DC rectal thermometer (World Precision Instruments, Berlin). rAAV-SEQ ID NO:5) was infused into the left cortex (coordinates relative to Bregma: first site: AP 0.2 mm; ML 2.0; DV −2.0; second site: AP 0.2; ML 2.0; DV −1.8; third site: AP 0.2; ML 3.0; DV −4.0; forth site: AP 0.2; ML 3.0; DV −3.5.) using a Ultra Micro Pump III (World Precision Instruments, Berlin) to drive a 10 μl Nanofil syringe (World Precision Instruments, Berlin). […]
MCAO: Middle cerebral artery occlusion (MCAO) induced a permanent distal occlusion of the middle cerebral artery (MCA). […] The silver stained sections were scanned at 1200 dpi and infarct area was measured by using ImageJ software (NIH Image). Surgery was performed and ischemic damage was measured by an investigator who had no knowledge of the treatment group, rAAV or recombinant protein was applied by stereotactic injection or intranasal delivery.

Row | Compound | protection of mitochondrial membrane potential from NMDA excitotoxicity ([1]; compound applied 30 min prior to recording, bath application of NMDA) | infarct volume [2] | NMDA receptor induced mitochondrial membrane potential breakdown ([1]; polypeptides expressed via rAAV, bath application of 20 μM NMDA)
1 | CCN(CCN)Cc1cccc(Br)c1 [P4] | significantly protect mitochondrial membrane potential from NMDA excitotoxicity |  | 
2 | SEQ ID NO:5: polypeptide, amino acid residues 633-689 of mouse TRPM4 (NSEERAARLLLRRCPLWGEATCLQLAMQADARAFFAQDGVQSLLTQKWWGEMDSTTP; listed as Mus musculus) |  | significantly smaller; also recorded: effectively reduced the infarct volumes | capable of preventing NMDA receptor induced mitochondrial membrane potential breakdown

Reference: patent publication US20260242440A1, “NOVEL MEANS TO MODULATE NMDA RECEPTOR-MEDIATED TOXICITY” (FUNDAMENTAL PHARMA GMBH, priority 2018, published 2026)
